Target: Phospholipase D2 (Homo sapiens) + Phospholipase D2 (Homo sapiens) (UniProt O14939+O14939)
Assay: phospholipase D2 biochemical inhibition IC50 – assay 3B, library 32, dose response (AID 624000)
Conditions: purified PLD2 enzyme activity

Chain of Phospholipase D2 (Homo sapiens) + Phospholipase D2 (Homo sapiens) (O14939 whole entry, looked up): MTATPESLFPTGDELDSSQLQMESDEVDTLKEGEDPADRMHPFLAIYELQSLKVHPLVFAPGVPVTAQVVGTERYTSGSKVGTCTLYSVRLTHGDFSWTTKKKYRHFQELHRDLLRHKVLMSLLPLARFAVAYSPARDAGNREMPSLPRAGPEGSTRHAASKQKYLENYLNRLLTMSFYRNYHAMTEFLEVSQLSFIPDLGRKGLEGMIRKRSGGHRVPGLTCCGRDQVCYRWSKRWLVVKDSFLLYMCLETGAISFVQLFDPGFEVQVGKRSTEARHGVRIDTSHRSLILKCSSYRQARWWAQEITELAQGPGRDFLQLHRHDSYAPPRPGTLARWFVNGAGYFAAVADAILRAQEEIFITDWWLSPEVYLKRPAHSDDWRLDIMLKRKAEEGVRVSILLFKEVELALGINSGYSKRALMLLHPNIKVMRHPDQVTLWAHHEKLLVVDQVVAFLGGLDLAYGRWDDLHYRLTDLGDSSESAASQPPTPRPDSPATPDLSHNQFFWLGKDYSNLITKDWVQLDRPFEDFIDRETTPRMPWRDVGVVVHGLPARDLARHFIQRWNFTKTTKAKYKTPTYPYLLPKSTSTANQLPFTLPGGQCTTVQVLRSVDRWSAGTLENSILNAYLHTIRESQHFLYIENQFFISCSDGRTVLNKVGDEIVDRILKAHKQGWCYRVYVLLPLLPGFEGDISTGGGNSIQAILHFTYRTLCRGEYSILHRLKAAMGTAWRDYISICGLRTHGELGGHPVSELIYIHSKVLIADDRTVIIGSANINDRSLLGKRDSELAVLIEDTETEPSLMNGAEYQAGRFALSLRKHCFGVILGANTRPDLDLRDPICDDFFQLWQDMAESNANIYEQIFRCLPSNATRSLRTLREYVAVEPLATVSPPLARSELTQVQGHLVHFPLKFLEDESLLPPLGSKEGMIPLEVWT
Chain of Phospholipase D2 (Homo sapiens) + Phospholipase D2 (Homo sapiens) (O14939 whole entry, looked up): as above

Compound	IC50
COc1cc(C(=O)NCCN2CCC3(CC2)C(=O)NCN3c2cccc(F)c2)cc(OC)c1OC	1430 nM
C[C@@H](CN1CCC2(CC1)C(=O)NCN2c1cccc(F)c1)NC(=O)c1ccc(Br)cc1	84 nM

— PubChem BioAssay AID624000 (Vanderbilt Specialized Chemistry Center, 2012)
